Source: the NIST ThermoML archive (doi:10.1016/j.fluid.2018.04.024)

Settings: Liquid, Vibrating tube method

CCCCCCCC(=O)OC [methyl octanoate]
mass density [kg/m3]
Settings	293.15 K	303.15 K	313.15 K	323.15 K	333.15 K	343.15 K	353.15 K	363.15 K
100 kPa	876.9	867.63	859.3	850.11	841.41	832.2	823.55	814.86
1000 kPa	877.02	868.42	859.59	850.91	842.13	833.32	824.37	815.91
3000 kPa	878.65	869.93	861.28	852.59	844.08	835.25	826.59	818.18
5000 kPa	879.78	871.47	862.89	854.3	845.82	837.24	828.51	820.31
10000 kPa	883.45	875.12	866.8	858.46	850.11	841.71	833.34	825.1
15000 kPa	886.82	878.71	870.52	862.36	854.18	846.06	838.05	830.33
20000 kPa	890.07	882.04	874.1	866.24	858.22	850.39	842.32	834.62
25000 kPa	893.28	885.35	877.59	869.67	862.06	854.17	846.49	838.84
30000 kPa	896.35	888.57	880.87	873.15	865.57	858.07	850.48	843.09
35000 kPa	899.25	891.59	884.11	876.46	869.05	861.81	854.32	847.13
40000 kPa	902.05	894.49	887.04	879.75	872.61	865.19	857.88	851.06
50000 kPa	907.81	900.27	893.07	885.93	878.98	872.01	864.82	858.24
60000 kPa	912.62	905.64	898.5	891.84	884.95	877.98	871.35	865.07

CCCCCCCCC(=O)OC [methyl nonanoate]
mass density [kg/m3]
Settings	293.15 K	303.15 K	313.15 K	323.15 K	333.15 K	343.15 K	353.15 K	363.15 K
100 kPa	874.53	865.62	857.46	848.37	839.92	831.17	822.78	814.24
1000 kPa	874.57	866.39	857.68	849.17	840.72	832.28	823.57	815.28
3000 kPa	876.13	867.88	859.33	850.82	842.6	834.1	825.7	817.47
5000 kPa	877.24	869.35	860.86	852.43	844.26	835.98	827.54	819.49
10000 kPa	880.79	872.9	864.63	856.42	848.44	840.27	832.17	824.1
15000 kPa	884.05	876.32	868.21	860.21	852.27	844.44	836.71	829.08
20000 kPa	887.23	879.53	871.68	863.98	856.18	848.65	840.79	833.26
25000 kPa	890.33	882.74	875.06	867.27	859.9	852.29	844.86	837.27
30000 kPa	893.33	885.85	878.23	870.68	863.32	856.04	848.7	841.4
35000 kPa	896.14	888.79	881.36	873.86	866.68	859.58	852.44	845.31
40000 kPa	898.87	891.61	884.18	877.04	870.12	862.91	855.87	849.11
50000 kPa	904.41	897.21	890.09	883.08	876.13	869.47	862.53	855.98
60000 kPa	909.15	902.44	895.33	888.79	881.95	875.25	868.9	862.59
